Measured values published in US20100305120A1, “COMPOUNDS FOR TREATING MUSCULAR DYSTROPHY” (BIOMARIN IGA LIMITED, priority 2008, published 2010).

Tested on: Utrophin A promoter linked to a luciferase reporter gene
Experiment: Luciferase reporter assay (murine H2K cells), H2K/mdx/Utro A reporter cell line
Type: cell-based
Details: 48 h; test compound concentration 0.3 μM; mdx mouse H2K Utrophin A reporter cells; read-out: Activity (luciferase level relative to control)
How it was run: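 Immortalized mdx mouse H2K myoblasts stably carrying ~5 kb utrophin A promoter–luciferase construct, kept at 33 °C, 10% CO2. Compound added 24 h after plating, typically at 10 μM final, for 48 h; luciferase measured by cell lysis and luminescence.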

SMILES	activity at 0.3 µM [%]
CS(=O)(=O)c1ccc(Cn2nc(NC(=O)Nc3ccc(Cl)cc3)c3ccccc32)cc1 [Compound 118, 1-(4-chlorophenyl)-3-(1-(4-(methylsulfonyl)benzyl)-1H-indazol-3-yl)urea]	< 200

Same assay, conditions: 48 h; test compound concentration 3 μM; mdx mouse H2K Utrophin A reporter cells; read-out: Activity (luciferase level relative to control)

SMILES	activity at 3 µM [%]
CS(=O)(=O)c1ccc(Cn2nc(C(=O)Nc3cnc4ccccc4c3)c3ccccc32)cc1 [Compound 103, 1-(4-(methylsulfonyl)benzyl)-N-(quinolin-3-yl)-1H-indazole-3-carboxamide]	< 200

Same assay, conditions: 48 h; test compound concentration 10 μM; mdx mouse H2K Utrophin A reporter cells; read-out: Activity (luciferase level relative to control)

SMILES	activity at 10 µM [%]
O=C(Nc1ccc2c(c1)OCO2)c1nn(Cc2ccncc2)c2ccccc12 [Compound 97, N-(benzo[d][1,3]dioxol-5-yl)-1-(pyridin-4-ylmethyl)-1H-indazole-3-carboxamide]	< 200
CC(C)c1nsc(NC(=O)c2nn(Cc3ccc(S(C)(=O)=O)cc3)c3ccccc23)n1 [Compound 98, N-(3-isopropyl-1,2,4-thiadiazol-5-yl)-1-(4-(methylsulfonyl)benzyl)-1H-indazole-3-carboxamide]	< 200
CS(=O)(=O)c1ccc(Cn2nc(C(=O)Nc3ccc4ncccc4c3)c3ccccc32)cc1 [Compound 99, 1-(4-(methylsulfonyl)benzyl)-N-(quinolin-6-yl)-1H-indazole-3-carboxamide]	201 to 300
O=C(Nc1ccc2c(c1)OCO2)c1nn(Cc2cccc(C(=O)N3CCOCC3)c2)c2ccccc12 [Compound 100, N-(benzo[d][1,3]dioxol-5-yl)-1-(3-(morpholine-4-carbonyl)benzyl)-1H-indazole-3-carboxamide]	< 200
CS(=O)(=O)c1ccc(Cn2nc(C(=O)Nc3ccc(S(C)(=O)=O)cc3)c3ccccc32)cc1 [Compound 101, 1-(4-(methylsulfonyl)benzyl)-N-(4-(methylsulfonyl)phenyl)-1H-indazole-3-carboxamide]	< 200
CS(=O)(=O)c1ccc(Cn2nc(C(=S)Nc3ccc4c(c3)OCO4)c3ccccc32)cc1 [Compound 102, N-(benzo[d][1,3]dioxol-5-yl)-1-(4-(methylsulfonyl)benzyl)-1H-indazole-3-carbothioamide]	201 to 300
Cc1ccc(NC(=O)c2nn(Cc3ccc(S(C)(=O)=O)cc3)c3ccccc23)cc1C [Compound 104, N-(3,4-dimethylphenyl)-1-(4-(methylsulfonyl)benzyl)-1H-indazole-3-carboxamide]	301 to 400
CS(=O)(=O)c1ccc(Cn2nc(C(=O)Nc3ccc4c(c3)OCCO4)c3ccccc32)cc1 [Compound 105, N-(2,3-dihydrobenzo[b][1,4]dioxin-6-yl)-1-(4-(methylsulfonyl)benzyl)-1H-indazole-3-carboxamide]	> 401
O=C(Nc1ccc2c(c1)OCO2)c1nn(Cc2cccnc2)c2ccccc12 [Compound 106, N-(benzo[d][1,3]dioxol-5-yl)-1-(pyridin-3-ylmethyl)-1H-indazole-3-carboxamide]	201 to 300
CC(=O)Nc1ccc(NC(=O)c2nn(Cc3ccc(S(C)(=O)=O)cc3)c3ccccc23)cc1 [Compound 107, N-(4-acetamidophenyl)-1-(4-(methylsulfonyl)benzyl)-1H-indazole-3-carboxamide]	201 to 300
Cc1ccc(NC(=O)c2nn(Cc3ccc(S(C)(=O)=O)cc3)c3ccccc23)cc1 [Compound 108, 1-(4-(methylsulfonyl)benzyl)-N-p-tolyl-1H-indazole-3-carboxamide]	> 401
CC(=O)Nc1ccc(NC(=O)c2nn(Cc3ccc(C(F)(F)F)cc3)c3ccccc23)cc1 [Compound 109, N-(4-acetamidophenyl)-1-(4-(trifluoromethyl)benzyl)-1H-indazole-3-carboxamide]	< 200
CS(=O)(=O)c1ccc(Cn2nc(C(=O)Nc3ccc4nccnc4c3)c3ccccc32)cc1 [Compound 110, 1-(4-(methylsulfonyl)benzyl)-N-(quinoxalin-6-yl)-1H-indazole-3-carboxamide]	301 to 400
CS(=O)(=O)c1ccc(Cn2nc(C(=O)Nc3ccc(Cl)c(Cl)c3)c3ccccc32)cc1 [Compound 111, N-(3,4-dichlorophenyl)-1-(4-(methylsulfonyl)benzyl)-1H-indazole-3-carboxamide]	< 200
CCCc1ccc(NC(=O)c2nn(Cc3ccc(S(C)(=O)=O)cc3)c3ccccc23)cc1 [Compound 112, 1-(4-(methylsulfonyl)benzyl)-N-(4-propylphenyl)-1H-indazole-3-carboxamide]	201 to 300
CS(=O)(=O)c1ccc(Cn2nc(C(=O)Nc3ccc4c(c3)CS(=O)(=O)C4)c3ccccc32)cc1 [Compound 113, N-(1,3-dihydrobenzo[c]thiophen-2,2-dioxy-5-yl)-1-(4-(methylsulfonyl)benzyl)-1H-indazole-3-carboxamide]	< 200
O=C(Nc1ccc2c(c1)OCO2)c1nn(Cc2ccc(C(F)(F)F)cc2)c2ccccc12 [Compound 115, N-(benzo[d][1,3]dioxol-5-yl)-1-(4-(trifluoromethyl)benzyl)-1H-indazole-3-carboxamide]	< 200
CS(=O)(=O)c1ccc(Cn2nc(C(=O)Nc3ccc4ccccc4c3)c3ccccc32)cc1 [Compound 116, 1-(4-(methylsulfonyl)benzyl)-N-(naphthalen-2-yl)-1H-indazole-3-carboxamide]	201 to 300

SMILES	activity at 10 µM [%]
CN(C)C(=O)c1ccc(Cn2nc(C(=O)Nc3ccc4c(c3)OCO4)c3ccccc32)cc1 [Compound 117, N-(benzo[d][1,3]dioxol-5-yl)-1-(4-(dimethylcarbamoyl)benzyl)-1H-indazole-3-carboxamide]	201 to 300
CC(C)c1ccc(Cn2nc(C(=O)Nc3ccc4c(c3)OCO4)c3ccccc32)cc1 [Compound 119, N-(benzo[d][1,3]dioxol-5-yl)-1-(4-isopropylbenzyl)-1H-indazole-3-carboxamide]	< 200
CS(=O)(=O)c1ccc(Cn2nc(C(=O)Nc3ccc4occc4c3)c3ccccc32)cc1 [Compound 120, N-(benzofuran-5-yl)-1-(4-(methylsulfonyl)benzyl)-1H-indazole-3-carboxamide]	301 to 400
CS(=O)(=O)c1ccc(Cn2nc(C(=O)Nc3ccc4c(c3)CCCC4)c3ccccc32)cc1 [Compound 121, 1-(4-(methylsulfonyl)benzyl)-N-(5,6,7,8-tetrahydronaphthalen-2-yl)-1H-indazole-3-carboxamide]	201 to 300
CS(=O)(=O)c1ccc(Cn2nc(C(=O)Nc3ccc(C4CCCCC4)cc3)c3ccccc32)cc1 [Compound 122, N-(4-cyclohexylphenyl)-1-(4-(methylsulfonyl)benzyl)-1H-indazole-3-carboxamide]	201 to 300
O=C(Nc1ccc2c(c1)OCO2)c1nn(Cc2ccc3c(c2)OCO3)c2ccccc12 [Compound 123, N-(benzo[d][1,3]dioxol-5-yl)-1-(benzo[d][1,3]dioxol-5-ylmethyl)-1H-indazole-3-carboxamide]	201 to 300
CC(C)(C)c1ccc(C(=O)n2nc(C(=O)Nc3ccc4c(c3)OCO4)c3ccccc32)cc1 [Compound 124, N-(benzo[d][1,3]dioxol-5-yl)-1-(4-tert-butylbenzoyl)-1H-indazole-3-carboxamide]	301 to 400
Cc1cnc(NC(=O)c2nn(Cc3ccc(S(C)(=O)=O)cc3)c3ccccc23)s1 [Compound 125, 1-(4-(methylsulfonyl)benzyl)-N-(5-methylthiazol-2-yl)-1H-indazole-3-carboxamide]	< 200
Cc1csc(NC(=O)c2nn(Cc3ccc(S(C)(=O)=O)cc3)c3ccccc23)n1 [Compound 126, 1-(4-(methylsulfonyl)benzyl)-N-(4-methylthiazol-2-yl)-1H-indazole-3-carboxamide]	< 200
CS(=O)(=O)c1cccc(Cn2nc(C(=O)Nc3ccc4c(c3)OCO4)c3ccccc32)c1 [Compound 127, N-(benzo[d][1,3]dioxol-5-yl)-1-(3-(methylsulfonyl)benzyl)-1H-indazole-3-carboxamide]	< 200
CN(C)S(=O)(=O)c1ccc(Cn2nc(C(=O)Nc3ccc4c(c3)OCO4)c3ccccc32)cc1 [Compound 128, N-(benzo[d][1,3]dioxol-5-yl)-1-(4-(N,N-dimethylsulfamoyl)benzyl)-1H-indazole-3-carboxamide]	201 to 300
O=C(Nc1ccc2c(c1)OCO2)c1nn(Cc2ccsc2)c2ccccc12 [Compound 129, N-(benzo[d][1,3]dioxol-5-yl)-1-(thiophen-3-ylmethyl)-1H-indazole-3-carboxamide]	< 200
CS(=O)(=O)c1ccc(Cn2nc(C(=O)Nc3ccc4c(c3)CCC4)c3ccccc32)cc1 [Compound 130, N-(2,3-dihydro-1H-inden-5-yl)-1-(4-(methylsulfonyl)benzyl)-1H-indazole-3-carboxamide]	201 to 300
Cc1ccc(Cn2nc(C(=O)Nc3ccc4c(c3)OCO4)c3ccccc32)cc1 [Compound 131, N-(benzo[d][1,3]dioxol-5-yl)-1-(4-methylbenzyl)-1H-indazole-3-carboxamide]	< 200
CCc1ccc(Cn2nc(C(=O)Nc3ccc4c(c3)OCO4)c3ccccc32)cc1 [Compound 132, N-(benzo[d][1,3]dioxol-5-yl)-1-(4-ethylbenzyl)-1H-indazole-3-carboxamide]	201 to 300
Cc1ccc(NC(=O)c2nn(Cc3ccc(S(C)(=O)=O)cc3)c3ccccc23)cn1 [Compound 133, N-(6-methylpyridin-3-yl)-1-(4-(methylsulfonyl)benzyl)-1H-indazole-3-carboxamide]	< 200
Cc1ccc(NC(=O)c2nn(Cc3ccc(S(C)(=O)=O)cc3)c3ccccc23)nc1 [Compound 134, N-(5-methylpyridin-2-yl)-1-(4-(methylsulfonyl)benzyl)-1H-indazole-3-carboxamide]	< 200
CN(C)C(=O)c1cccc(Cn2nc3ccccc3c2C(=O)Nc2ccc3c(c2)OC(F)(F)O3)c1 [Compound 135, N-(2,2-difluorobenzo[d][1,3]dioxol-5-yl)-2-(3-(dimethylcarbamoyl)benzyl)-2H-indazole-3-carboxamide]	201 to 300
